Measured values published in patent publication US12403121B2, “Anticancer rocaglamide derivatives” (priority 2018, dated 2025).
Like-named read-outs stand apart in the source and are kept apart here.

What was measured:
[1] = test system: Ben-Men-1 NF2−/− meningioma cells; test: 3-day resazurin cell proliferation assay, Ben-Men-1 meningioma cells; format: cell-based, human; conditions: read-out: IC50 (nM) Ben-Men-1 NF2−/− meningioma cells
Method: (§1) The human MPNST cell lines, ST8814, STS26T, S462, T265, and luciferase-expressing ST8814-Luc, the human NF2-deficient meningioma cell line Ben-Men-1, the NJ2 mouse schwannoma cell line Sch10545, and primary human Schwann cells were propagated as previously described. Oblinger et al., Neuro-Oncol., 18:1265-1277 (2016). The Ewing sarcoma cell line A673 and the osteosarcoma cell lines, 143B and MG-63, were grown in Dulbecco's Modified Eagle's (DME) medium (Millipore-Sigma) supplemented with 10% fetal bovine serum (FBS; Atlanta Biological). The silvestrol-sensitive 697 and silvestrol-resistant 697-R pre-B acute lymphoblastic leukemia cells (Gupta et al., AAPS J., 13:357-364 (2011)), the Ewing sarcoma cell line TC32, the osteosarcoma cell lines, Saos2 and OS17, and the rhabdomyosarcoma cell line RD were cultivated in RPMI 1640 medium (Millipore-Sigma) plus 10% FBS.
(§2) Actively-growing cells were seeded in 96-well plates (Sarstedt) at 2,000 cells/well for Ben-Men-1 and RD cells, 30,000 cells/well for 697 and 697-R cells, and 4,000 cells/well for all other cell lines. The following day, cells were treated with various concentrations of each compound or and 0.05% of DMSO as the control for six days for MG-63 cells or three days for all remaining cell lines. Cell proliferation was assessed using resazurin assays and the IC50 value calculated. Cell cycle analysis was performed accordingly. Burns et al., Cancer Res., 73:792-803 (2013).
(§3) To search for compounds with better drug-like properties, the inventors conducted a side-by-side comparison of ten rocaglates lacking the dioxanyl ring with silvestrol for growth-inhibitory activity in a panel of MPNST, schwannoma, and meningioma cell lines, which they had previously shown to be sensitive to the antiproliferative action of silvestrol. […] The average IC50 value of each rocaglate was determined by 3-day resazurin proliferation assays. […] Further structure and activity comparison discerned some positions on the cyclopenta[b]benzofuran scaffold that affected the antiproliferative activity of rocaglates.

[2] = test system: Sch10545 Nf2−/− schwannoma cells; test: 3-day resazurin cell proliferation assay, Sch10545 schwannoma cells; format: cell-based, mouse; conditions: read-out: IC50 (nM) Sch10545 Nf2−/− schwannoma cells
Method: as §1, §2, §3

[3] = test system: STS26T NF1+/+ MPNST cells; test: 3-day resazurin cell proliferation assay, STS26T MPNST cells; format: cell-based, human; conditions: read-out: IC50 (nM) STS26T NF1+/+ MPNST cells
Method: as §1, §2, §3

[4] = test system: ST8814 NF1−/− MPNST cells; test: 3-day resazurin cell proliferation assay, ST8814 MPNST cells; format: cell-based, human; conditions: read-out: IC50 (nM) ST8814 NF1−/− MPNST cells
Method: as §1, §2, §3

[5] = test system: panel of MPNST, schwannoma, and meningioma cell lines; test: Side-by-side growth inhibition comparison with silvestrol in a cell line panel; format: cell-based; conditions: all cell lines tested
Method: as §2, §3

[6] = test system: STS26T and ST8814 MPNST cells; test: Flow cytometry cell cycle analysis; format: cell-based, human; conditions: one- or two-IC50 doses, three days
Method: as §2

[7] = test system: TC32 Ewing sarcoma, 143B osteosarcoma, and RD rhabdomyosarcoma cells; test: Western blots of treated sarcoma cells; format: cell-based
Method: FIGS. 7A-7C provide images showing DDR and Roc reduce multiple signaling proteins important for the growth and survival of sarcoma cells. Lysates prepared from TC32 Ewing sarcoma (A), 143B osteosarcoma (B), and RD rhabdomyosarcoma (C) cells were treated 1 and 2 days with the indicated concentrations of DDR or Roc and analyzed by Western blotting for the expression of various oncogenic driver proteins. GAPDH was used as a loading control.
(§4) Subconfluent cells were treated with the indicated doses of Roc or DDR for 24-72 hours and then harvested in cell lysis buffer (Cell Signaling Technology) containing 1 mM phenylmethylsufonylfluoride and protease inhibitor cocktail (Sigma-Aldrich). The protein content in cleared lysates was quantitated using the microBCA assay (ThermoFisher). Equal amounts of protein were run in sodium dodecyl sulfate-polyacrylamide gels and electrotransferred onto Immobilon-FL PVDF membranes (Millipore). The antibodies used were directed against: MDR1/ABCB1 (#13978), insulin-like growth factor-1 receptor β subunit (IGF-1Rβ; #9750), AKT (#9272), ERK1/2 (#4695), glyceraldehyde-3-phosphate dehydrogenase (GAPDH; #5174), caspase-3 (#9662), caspase-7 (#9492), cleaved caspase-7 (#9491), poly(ADP-ribose) polymerase (PARP; #9532), cleaved PARP (#5625), and phospho-histone H2A.X (pH2A.X[Ser′^39]; #9718; all from Cell Signaling Technology), NKX2.2 (sc-514161), LSD1 (sc-136174), and survivin (sc-17779; Santa Cruz Biotechnology), and FLI1 (ab15289) and cleaved caspase-3 (CC3; ab32042; Abeam). Protein bands were detected using IRDye® infrared fluorescent dye-labeled secondary antibodies and scanning on an Odyssey CLx imaging system (LI-COR Biosciences) using the appropriate fluorescent channel at a resolution of 84 μm.
To further examine the molecular mechanisms underlying the antiproliferative effects of rocaglamides, the inventors treated TC32 Ewing sarcoma, 143B osteosarcoma, and RD rhabdomyosarcoma cells with 1- or 2-IC50 dose of DDR or rocaglamide for 1-2 days followed by Western blotting for several known drivers of cell survival and proliferation. […] They also observed reduction of the IGF-1Rβ levels in rocaglamide-treated MPNST cells. In addition, Roc and DDR decreased the levels of AKT, ERKs, cyclin D1 and survivin in treated TC32, 143B, and RD cells (FIG. 7). Intriguingly, the oncogenic fusion protein EWS-FLI1, which acts as an aberrant transcription factor in Ewing sarcoma, was not affected in Roc- and DDR-treated TC32 Ewing sarcoma cells (FIG. 7A). […] However, the expression of lysine demethylase 1 (LSD1), which modulates EWS-FLI1 transcriptional activity (Sankar et al., Oncogene, 32:5089-5100 (2013)), and NKX2.2, an EWS-FL11-regulated gene necessary for oncogenic transformation (Smith et al., Cancer Cell, 9:405-416 (2006)), were diminished by these rocaglamides in TC32 cells (FIG. 7A).

[8] = test system: STS26T cells; test: Western blots of treated MPNST cells; format: cell-based, human; conditions: 1 or 2 IC50
Method: FIGS. 2A and 2B provide images showing that DDR and Roc increase caspase and PARP cleavage and elevated the levels of γH2AX while decreasing the expression of AKT and ERKs in MPNST cells. (A) Protein lysates prepared from STS26T cells treated for 3 days with 1 or 2 IC50 of DDR or Roc were analyzed by Western blots for the expression of various apoptosis-related proteins and mitogenic kinases AKT and ERK1/2. GAPDH served as a loading control. (B) Western blot analysis was performed on lysates from STS26T cells treated for 1 and 2 days with 1 or 2 IC50 of DDR for the expression of the DNA-damage response biomarker phosphorylated H2A.X (γH2A.X). As a positive control, lysates from HMS-97 human malignant schwannoma cells irradiated with 4 Grays (Gy) of X-ray were used.
as §4
To confirm induction of apoptosis in rocaglamide-treated MPNST cells, the inventors analyzed protein expression of several markers important for this process. […] A concomitant decrease in the amounts of intact caspases 3 and 7 and PARP was observed, consistent with the enhanced cleavage of these apoptotic markers and possibly due to direct effects of these rocaglamides on protein translation. Likewise, the levels of the pro-survival kinases AKT and ERK1/2 were diminished in rocaglamide-treated MPNST cells.

[9] = test system: A673, TC32, 143B, MG-63, Saos2, OS17 and RD sarcoma cell lines; test: Cell proliferation in Ewing sarcoma, osteosarcoma and rhabdomyosarcoma cell lines; format: cell-based
Method: as §1, §2
Since MPNSTs comprise only ˜2% of all sarcomas (Farid et al. Oncologist, 19:193-201 (2014)), the inventors expanded their testing of Roc and DDR to three other more prevalent sarcomas particularly in children and young adults: Ewing sarcoma, osteosarcoma, and rhabdomyosarcoma.

[10] = 3-day resazurin proliferation assay, average IC50

SMILES	IC50 [1, 10]	IC50 [2, 10]	IC50 [3, 10]	IC50 [4, 10]	other results
COC(=O)[C@H]1[C@@H](O)[C@@]2(O)c3c(OC)cc(OC)cc3O[C@@]2(c2ccc(OC)cc2)[C@@H]1c1ccccc1 [Methyl rocaglate]	55 nM	50 nM	25 nM	35 nM	–
COC(=O)C1C(O)C2(O)c3c(OC)cc(OC)cc3OC2(c2ccc3c(c2)OCO3)C1c1ccccc1 (centres unmarked) [Methyl 4′-demethoxy-3′,4′-methylenedioxyrocaglate]	80 nM	60 nM	35 nM	70 nM	–
COc1cc(OC)c2c(c1)OC1(c3ccc4c(c3)OCO4)C(c3ccccc3)CC(O)C21OC (centres unmarked) [8b-O-methyl-4′-demethoxy-3′,4′-methylenedioxyrocaglaol]	> 2500 nM	> 2500 nM	5000 nM	10000 nM	–
COC(=O)C1C(O)C2(OC)c3c(OC)cc(OC)cc3OC2(c2ccc3c(c2)OCO3)C1c1ccccc1 (centres unmarked) [Methyl 8b-O-methyl-4′-demethoxy-3′,4′-methylenedioxyrocaglate]	3800 nM	1900 nM	1300 nM	2000 nM	–
COC(=O)C1C(O)C2(OC)c3c(OC)cc(OC)cc3OC2(c2ccc(OC)cc2)C1c1ccccc1 (centres unmarked) [Methyl 8b-O-methylrocaglate]	> 10000 nM	9300 nM	≥ 10000 nM	> 20000 nM	–
COc1cc(OC)c2c(c1)OC1(c3ccc4c(c3)OCO4)C(c3ccccc3)CC(O)C21O (centres unmarked) [4′-demethoxy-3′,4′-methylenedioxyrocaglaol]	85 nM	65 nM	55 nM	120 nM	–
COc1ccc([C@@]23Oc4cc(OC)cc(OC)c4[C@]2(O)[C@H](O)C[C@H]3c2ccccc2)cc1 [Rocaglaol]	–	–	–	–	IC50 ([1]; Homo sapiens, 72 h, 3-day resazurin proliferation assay, average IC50): 100 nM; IC50 ([2]; Mus musculus, 72 h, 3-day resazurin proliferation assay, average IC50): 60 nM; IC50 ([3]; Homo sapiens, STS-26T, 72 h, 3-day resazurin proliferation assay, average IC50): 40 nM; IC50 ([4]; Homo sapiens, ST88-14, 72 h, 3-day resazurin proliferation assay, average IC50): 90 nM
COc1ccc([C@@]23Oc4cc(OC)cc(OC)c4[C@]2(O)[C@H](O)[C@H](C(N)=O)[C@H]3c2ccccc2)cc1 [Didesmethylrocaglamide]	–	–	–	–	IC50 ([1]; Homo sapiens, 72 h): 5 nM; IC50 ([2]; Mus musculus, 72 h): 10 nM; IC50 ([3]; Homo sapiens, STS-26T, 72 h): 5 nM; potency relative to silvestrol [5]: ~2 fold; G2/M fraction [6]: marked increase in the GVM fraction; levels of the β subunit of IGF-1R ([7]; 1- or 2-IC50 dose, 1-2 days, all three sarcoma cell lines): reliably reduced; levels of AKT, ERKs, cyclin D1 and survivin ([7]; TC32, 143B, and RD cells, 1- or 2-IC50 dose, 1-2 days): decreased; EWS-FLI1 fusion protein level ([7]; TC32 Ewing sarcoma cells): not affected; expression of LSD1 and NKX2.2 ([7]; TC32 cells): diminished; IC50 ([4]; Homo sapiens, ST88-14, 72 h): 5 nM; levels of γH2AX ([8]; STS26T MPNST cells): elevated; cleavage of caspases 3 and 7 and PARP ([8]; STS26T cells, 3 days): increased cleavage; expression of AKT and ERKs ([8]; STS26T cells, 3 days): decreasing; IC50 values of DDR compared with Roc ([9]; every sarcoma cell line tested): lower IC5O values than Roc; activity against sarcoma cell lines ([9]; two Ewing sarcoma, four osteosarcoma, one rhabdomyosarcoma cell lines): highly active
COc1ccc([C@@]23Oc4cc(OC)cc(OC)c4[C@]2(OC)[C@H](O)C[C@H]3c2ccccc2)cc1 [8b-O-methylrocaglaol]	> 20000 nM	> 20000 nM	> 20000 nM	> 20000 nM	–
